The record followed here is ChEMBL document CHEMBL1275261, “Nationwide investigation of extended-spectrum beta-lactamases, metallo-beta-lactamases, and extended-spectrum oxacillinases produced by ceftazidime-resistant Pseudomonas aeruginosa strains in France” (2010).

Type in all cases: functional
In test [1] the test system is Pseudomonas aeruginosa. Nature of the test: Antibacterial activity against OXA-2 and OXA-19 producing Pseudomonas aeruginosa isolate P66 exhibiting PFGE C pattern by 2-fold agar dilution method.
Test [2] relates to Pseudomonas aeruginosa. Nature of the test: Antibacterial activity against SHV-2a producing Pseudomonas aeruginosa isolate P102 exhibiting PFGE H pattern by 2-fold agar dilution method.
The test system of test [3] is Pseudomonas aeruginosa. Nature of the test: Antibacterial activity against OXA-28 producing Pseudomonas aeruginosa isolate P174 exhibiting PFGE E pattern by 2-fold agar dilution method. (In agar dilution the substance is mixed into plates at graded concentrations.)
Test [4] concerns Pseudomonas aeruginosa. Briefly: Antibacterial activity against VEB-1a and OXA-10 producing Pseudomonas aeruginosa isolate P151 exhibiting PFGE I pattern by 2-fold agar dilution method.
Test [5] deals with Pseudomonas aeruginosa. Briefly: Antibacterial activity against OXA-10, PSE-1, VIM-2 and PER-1 producing Pseudomonas aeruginosa isolate P22 exhibiting PFGE F pattern by 2-fold agar dilution method.
For test [6], the system named is Pseudomonas aeruginosa. Nature of the test: Antibacterial activity against SHV-2a producing Pseudomonas aeruginosa isolate P60 exhibiting PFGE H pattern by 2-fold agar dilution method.
In test [7] the test system is Pseudomonas aeruginosa. Nature of the test: Antibacterial activity against PER-1 producing Pseudomonas aeruginosa isolate P170 exhibiting PFGE G pattern by 2-fold agar dilution method.
For test [8], the system named is Pseudomonas aeruginosa. Briefly: Antibacterial activity against VIM-2 producing Pseudomonas aeruginosa isolate P67 exhibiting PFGE J pattern by 2-fold agar dilution method.
For test [9], the system named is Pseudomonas aeruginosa. Nature of the test: Antibacterial activity against OXA-30, PSE-1, VIM-2 and PER-1 producing Pseudomonas aeruginosa isolate P19 exhibiting PFGE F pattern by 2-fold agar dilution method.
Test [10] has as its system Pseudomonas aeruginosa. Nature of the test: Antibacterial activity against IMP-18 producing Pseudomonas aeruginosa isolate P85 exhibiting PFGE K pattern by 2-fold agar dilution method.
The subject of test [11] is Pseudomonas aeruginosa. Nature of the test: Antibacterial activity against OXA-19 producing Pseudomonas aeruginosa isolate P9 exhibiting PFGE A pattern by 2-fold agar dilution method.
Test [12] has as its system Pseudomonas aeruginosa. Nature of the test: Antibacterial activity against OXA-19 producing Pseudomonas aeruginosa isolate P122 exhibiting PFGE A pattern by 2-fold agar dilution method.
In test [13] the test system is Pseudomonas aeruginosa. Briefly: Antibacterial activity against OXA-19 producing Pseudomonas aeruginosa isolate P11 exhibiting PFGE A pattern by 2-fold agar dilution method.
The subject of test [14] is Pseudomonas aeruginosa. Briefly: Antibacterial activity against PER-1 producing Pseudomonas aeruginosa isolate P170 exhibiting PFGE G pattern by 2-fold agar dilution method in presence of 4 ug/ml Tazobactam.
The test system of test [15] is Pseudomonas aeruginosa. Nature of the test: Antibacterial activity against OXA-10, PSE-1, VIM-2 and PER-1 producing Pseudomonas aeruginosa isolate P22 exhibiting PFGE F pattern by 2-fold agar dilution method in presence of 4 ug/ml Tazobactam.
Test [16] relates to Pseudomonas aeruginosa. Briefly: Antibacterial activity against OXA-2 and OXA-19 producing Pseudomonas aeruginosa isolate P66 exhibiting PFGE C pattern by 2-fold agar dilution method in presence of 4 ug/ml Tazobactam.
Test [17] concerns Pseudomonas aeruginosa. Briefly: Antibacterial activity against OXA-19 producing Pseudomonas aeruginosa isolate P122 exhibiting PFGE A pattern by 2-fold agar dilution method in presence of 4 ug/ml Tazobactam.
Test [18] concerns Pseudomonas aeruginosa. Briefly: Antibacterial activity against VEB-1a and OXA-10 producing Pseudomonas aeruginosa isolate P151 exhibiting PFGE I pattern by 2-fold agar dilution method in presence of 4 ug/ml Tazobactam.
Test [19] has as its system Pseudomonas aeruginosa. Nature of the test: Antibacterial activity against OXA-30, PSE-1, VIM-2 and PER-1 producing Pseudomonas aeruginosa isolate P19 exhibiting PFGE F pattern by 2-fold agar dilution method in presence of 4 ug/ml Tazobactam.
In test [20] the test system is Pseudomonas aeruginosa. Nature of the test: Antibacterial activity against VIM-2 producing Pseudomonas aeruginosa isolate P67 exhibiting PFGE J pattern by 2-fold agar dilution method in presence of 4 ug/ml Tazobactam.
For test [21], the system named is Pseudomonas aeruginosa. Briefly: Antibacterial activity against OXA-19 producing Pseudomonas aeruginosa isolate P9 exhibiting PFGE A pattern by 2-fold agar dilution method in presence of 4 ug/ml Tazobactam.
The test system of test [22] is Pseudomonas aeruginosa. Briefly: Antibacterial activity against SHV-2a producing Pseudomonas aeruginosa isolate P60 exhibiting PFGE H pattern by 2-fold agar dilution method in presence of 4 ug/ml Tazobactam.
Test [23] relates to Pseudomonas aeruginosa. Briefly: Antibacterial activity against SHV-2a producing Pseudomonas aeruginosa isolate P102 exhibiting PFGE H pattern by 2-fold agar dilution method in presence of 4 ug/ml Tazobactam.
The test system of test [24] is Pseudomonas aeruginosa. Nature of the test: Antibacterial activity against IMP-18 producing Pseudomonas aeruginosa isolate P85 exhibiting PFGE K pattern by 2-fold agar dilution method in presence of 4 ug/ml Tazobactam.
Test [25] has as its system Pseudomonas aeruginosa. Briefly: Antibacterial activity against OXA-28 producing Pseudomonas aeruginosa isolate P174 exhibiting PFGE E pattern by 2-fold agar dilution method in presence of 4 ug/ml Tazobactam.
The test system of test [26] is Pseudomonas aeruginosa. Nature of the test: Antibacterial activity against OXA-19 producing Pseudomonas aeruginosa isolate P11 exhibiting PFGE A pattern by 2-fold agar dilution method in presence of 4 ug/ml Tazobactam.

Converted amounts (≈) assume the structure as drawn.

As for `CO/N=C(\C(=O)N[C@@H]1C(=O)N2C(C(=O)[O-])=C(C[N+]3(C)CCCC3)CS[C@H]12)c1csc(N)n1`, the MIC (commonly the lowest concentration that inhibits growth of the organism) was 16 µg/mL (≈ 33.3 µM) in [1]; 64 µg/mL (≈ 133 µM) in test [2]; 32 µg/mL (≈ 66.6 µM) in [3]; more than 512 µg/mL in [4]; 128 µg/mL (≈ 266 µM) in test [5]; 64 µg/mL (≈ 133 µM) in test [6]. In addition, the MIC is 64 µg/mL (≈ 133 µM) in [7]; 64 µg/mL (≈ 133 µM) in [8]; 128 µg/mL (≈ 266 µM) in test [9]; 256 µg/mL (≈ 533 µM) in test [10]; 64 µg/mL (≈ 133 µM) in [11].
As for `C[C@H]1[C@H](NC(=O)/C(=N\OC(C)(C)C(=O)O)c2csc(N)n2)C(=O)N1S(=O)(=O)O` [AZTREONAM], the MIC was 16 µg/mL (≈ 36.7 µM) in test [1]; 32 µg/mL (≈ 73.5 µM) in test [2]; 32 µg/mL (≈ 73.5 µM) in test [3]; more than 512 µg/mL in [4]; 256 µg/mL (≈ 588 µM) in test [5]; 32 µg/mL (≈ 73.5 µM) in [6]. In addition, the MIC in test [7] turned out to be 128 µg/mL (≈ 294 µM); in [8], 32 µg/mL (≈ 73.5 µM); in test [9], 128 µg/mL (≈ 294 µM); in test [10], 16 µg/mL (≈ 36.7 µM); in [11] it was 16 µg/mL (≈ 36.7 µM).
As to `C[C@@H](O)[C@H]1C(=O)N2C(C(=O)O)=C(SCCNC=N)C[C@H]12` [IMIPENEM ANHYDROUS], the MIC was 1 µg/mL (≈ 3.34 µM) in [1]; 16 µg/mL (≈ 53.4 µM) in test [2]; 4 µg/mL (≈ 13.4 µM) in test [3]; 32 µg/mL (≈ 107 µM) in test [4]; 8 µg/mL (≈ 26.7 µM) in test [12]; 8 µg/mL (≈ 26.7 µM) in [13]. In addition, the MIC was 128 µg/mL (≈ 428 µM) in [5]; 1 µg/mL (≈ 3.34 µM) in [6]; 4 µg/mL (≈ 13.4 µM) in test [7]; 512 µg/mL (≈ 1710 µM) in test [8]; 128 µg/mL (≈ 428 µM) in test [9]; 64 µg/mL (≈ 214 µM) in test [10]. For the same compound, it took 16 µg/mL (≈ 53.4 µM) to inhibit growth in test [11] (MIC).
For `CC1(C)S[C@@H]2[C@H](NC(=O)[C@H](C(=O)O)c3ccsc3)C(=O)N2[C@H]1C(=O)O` [TICARCILLIN], the MIC in test [1] is 512 µg/mL (≈ 1330 µM); in [2], more than 512 µg/mL; in test [3] it was 128 µg/mL (≈ 333 µM); in test [4], more than 512 µg/mL; in [12], 256 µg/mL (≈ 666 µM); in [13] it was 256 µg/mL (≈ 666 µM). In addition, the MIC in test [5] was more than 512 µg/mL; in [6], more than 512 µg/mL; in [7], 512 µg/mL (≈ 1330 µM); in [8], more than 512 µg/mL; in [9], more than 512 µg/mL; in test [10], more than 512 µg/mL. For the same compound, the MIC in test [11] amounted to 512 µg/mL (≈ 1330 µM).
As to `O=C(O)c1cn(C2CC2)c2cc(N3CCNCC3)c(F)cc2c1=O` [CIPROFLOXACIN], the minimal inhibitory concentration (MIC) in test [1] stood at 128 µg/mL (≈ 386 µM); in test [2], 32 µg/mL (≈ 96.6 µM); in test [3], 128 µg/mL (≈ 386 µM); in test [4] it was 512 µg/mL (≈ 1550 µM); in [12], 64 µg/mL (≈ 193 µM); in test [13], 32 µg/mL (≈ 96.6 µM). Also, the MIC in test [6] was 32 µg/mL (≈ 96.6 µM); in test [7], 64 µg/mL (≈ 193 µM); in [8], 128 µg/mL (≈ 386 µM); in test [10] it was 128 µg/mL (≈ 386 µM); in [11], 64 µg/mL (≈ 193 µM).
Consider `NCC[C@H](O)C(=O)N[C@@H]1C[C@H](N)[C@@H](O[C@H]2O[C@H](CN)[C@@H](O)[C@H](O)[C@H]2O)[C@H](O)[C@H]1O[C@H]1O[C@H](CO)[C@@H](O)[C@H](N)[C@H]1O` [AMIKACIN], for which the minimal inhibitory concentration (MIC) in [1] worked out at 128 µg/mL (≈ 219 µM); in test [2] it was 128 µg/mL (≈ 219 µM); in test [3], 16 µg/mL (≈ 27.3 µM); in test [4], 128 µg/mL (≈ 219 µM); in test [12], 8 µg/mL (≈ 13.7 µM); in test [13], 8 µg/mL (≈ 13.7 µM). Besides, the MIC in test [5] is 64 µg/mL (≈ 109 µM); in test [6] it was 32 µg/mL (≈ 54.6 µM); in [7] it was 32 µg/mL (≈ 54.6 µM); in test [8], 32 µg/mL (≈ 54.6 µM); in [9], 64 µg/mL (≈ 109 µM); in test [10], more than 512 µg/mL. Moreover, in test [11], the MIC was 16 µg/mL (≈ 27.3 µM).
In the case of `CCN1CCN(C(=O)N[C@@H](C(=O)N[C@@H]2C(=O)N3[C@@H]2SC(C)(C)[C@@H]3C(=O)O)c2ccccc2)C(=O)C1=O` [PIPERACILLIN], the MIC in [14] came out at 128 µg/mL; in [15] it was 256 µg/mL; in test [16] it was 32 µg/mL; in test [17], 64 µg/mL; in [18] it was 256 µg/mL; in [19], 256 µg/mL. In addition, the MIC in test [20] was 32 µg/mL; in [21], 128 µg/mL; in test [22], 128 µg/mL; in test [23], 128 µg/mL; in [24], 128 µg/mL; in test [25], 128 µg/mL. Also, the MIC in [26] turned out to be 64 µg/mL.
In the case of `CC(C)(O/N=C(\C(=O)N[C@@H]1C(=O)N2C(C(=O)[O-])=C(C[n+]3ccccc3)CS[C@H]12)c1csc(N)n1)C(=O)O` [CEFTAZIDIME], the MIC in test [1] was 64 µg/mL (≈ 117 µM); in test [2] it was 64 µg/mL (≈ 117 µM); in test [3], 256 µg/mL (≈ 468 µM); in test [4] it was more than 512 µg/mL; in test [12] it was 256 µg/mL (≈ 468 µM); in [13] it was 256 µg/mL (≈ 468 µM). The MIC is 256 µg/mL (≈ 468 µM) in test [5]; 64 µg/mL (≈ 117 µM) in test [6]; 256 µg/mL (≈ 468 µM) in test [7]; 128 µg/mL (≈ 234 µM) in test [8]; 256 µg/mL (≈ 468 µM) in test [9]; more than 512 µg/mL in [10]. This compound registered a minimum inhibitory concentration (MIC) in [11] of 256 µg/mL (≈ 468 µM).
